Common to all, as to assay type: cell-based
Test [1] concerns normal primary human skin fibroblastic cells. The test is described as follows: Content of collagen in cell medium (extracellular collagen) of fibroblasts (Western blot and ELISA), relative to control. As to conditions: 48 hours; for relative content of collagen in the medium (extracellular content of collagen): control group = 100%; for extracellular contents of collagen (collagen in cell medium) as compared to the control group (in words): treated cells vs control group. On the procedure: The normal primary human skin fibroblastic cells (purchased from ATCC) were cultivated in a Fibroblast Growth Medium. The cells thus provided were used in the following experiments.
The normal primary human skin fibroblastic cells provided by [Preparation Example C] were divided into 4 groups and were respectively cultivated with the following medium for 48 hours: • 1. Group I: a Fibroblast Growth Medium; • 2.
(§1) Thereafter, the cell medium of each group was collected and concentrated. Then, the intracellular content of collagen, the content of collagen in cell medium (i.e., extracellular content of collagen) and the content of hyaluronic acid in cell medium were measured and analyzed by Western blot and enzyme-linked immunosorbent assay (ELISA).
(§2) The normal primary human skin fibroblastic cells provided by [Preparation Example C] were divided into 37 groups and were respectively cultivated with the following medium for 48 hours: • 1. Group 1: a Fibroblast Growth Medium • 2. Group 2-1 to 2-3: Fibroblast Growth Media containing the pachymic acid (PA) provided by [Preparation Example B] at a concentration of 0.01, 0.1 and 1 μM, respectively; • 3. Group 3-1 to 3-3: Fibroblast Growth Media containing the dehydropachymic acid (DPA) provided by [Preparation Example B] at a concentration of 0.01, 0.1 and 1 μM, respectively; • 4. Group 4-1 to 4-3: Fibroblast Growth Media containing the tumulosic acid (TA) provided by [Preparation Example B] at a concentration of 0.01, 0.1 and 1 μM, respectively; • 5. Group 5-1 to 5-3: Fibroblast Growth Media containing the dehydrotumulosic acid (DTA) provided by [Preparation Example B] at a concentration of 0.01, 0.1 and 1 μM, respectively; • 6. Group 6-1 to 6-3: Fibroblast Growth Media containing the polyporenic acid C (PAC) provided by [Preparation Example B] at a concentration of 0.01, 0.1 and 1 μM, respectively; • 7. Group 7-1 to 7-3: Fibroblast Growth Media containing the 3-epi-dehydrotumulosic acid (EDTA) provided by [Preparation Example B] at a concentration of 0.01, 0.1 and 1 μM, respectively; • 8. Group 8-1 to 8-3: Fibroblast Growth Media containing the dehydrotrametenolic acid (DTTA) provided by [Preparation Example B] at a concentration of 0.01, 0.1 and 1 μM, respectively; • 9. Group 9-1 to 9-3: Fibroblast Growth Media containing the trametenolic acid (TTA) provided by [Preparation Example B] at a concentration of 0.01, 0.1 and 1 μM, respectively; • 10. Group 10-1 to 10-3: Fibroblast Growth Media containing the poricoic acid A (PAA) provided by [Preparation Example B] at a concentration of 0.01, 0.1 and 1 μM, respectively; • 11. Group 11-1 to 11-3: Fibroblast Growth Media containing the dehydroeburicoic acid (DEA) provided by [Preparation Example B] at a concentration of 0.01, 0.1 and 1 μM, respectively; • 12. Group 12-1 to 12-3: Fibroblast Growth Media containing the poricoic acid B (PAB) provided by [Preparation Example B] at a concentration of 0.01, 0.1 and 1 μM, respectively; • 13. Group 13-1 to 13-3: Fibroblast Growth Media containing the eburicoic acid (EA) provided by [Preparation Example B] at a concentration of 0.01, 0.1 and 1 μM, respectively.
The content of collagen in the medium of each group (i.e., extracellular content of collagen) was provided.
A general note: In western blotting, separated proteins are transferred to a membrane and probed.

The test system is the same in test [2]. The test is described as follows: Intracellular content of collagen in fibroblasts (Western blot and ELISA), relative to control. Conditions: 48 hours; for relative intracellular content of collagen: control group = 100%. The procedure:
(§3) The normal primary human skin fibroblastic cells (purchased from ATCC) were cultivated in a Fibroblast Growth Medium. The cells thus provided were used in the following experiments. […]
as §2
Thereafter, the cell medium of each group was collected and concentrated. Then, the intracellular content of collagen was measured and analyzed by Western blot and enzyme-linked immunosorbent assay (ELISA).

Test [3] shares this test system. The experiment in a line: Content of hyaluronic acid in cell medium of fibroblasts (Western blot and ELISA), relative to control. Conditions: 48 hours; for relative content of hyaluronic acid in the medium (extracellular content of hyaluronic acid): control group = 100%. On the procedure: as §3, §1, §2
The content of hyaluronic acid in the medium of each group (i.e., extracellular content of hyaluronic acid) was provided.

In the case of `C=C(CC[C@@H](C(=O)O)[C@H]1CC[C@@]2(C)C3=C(CC[C@]12C)[C@@]1(C)CC[C@H](O)C(C)(C)[C@@H]1CC3)C(C)C` [Eburicoic acid (EA), eburicoic acid], the “relative content of collagen in the medium (extracellular content of collagen)” value (from here on “relative content of collagen”) in test [1] (0.01 μM) is listed as 108%; in test [1] (0.1 μM), 106%; in test [1] (1 μM), 88%. For the same molecule, the “extracellular contents of collagen (collagen in cell medium) as compared to the control group (in words)” value in test [1] is on record as “significantly enhanced”. Besides, the “relative intracellular content of collagen” value is 102% in test [2] (0.01 μM), 97% in test [2] (0.1 μM) and 95% in test [2] (1 μM). Also, the “relative content of hyaluronic acid in the medium (extracellular content of hyaluronic acid)” value (“relative content of hyaluronic acid” for short) in test [3] (0.01 μM) is 94%; in test [3] (0.1 μM), 107%; in test [3] (1 μM) it was 120%. Moreover, the “contents of hyaluronic acid as compared to the control group (in words)” value in test [3] (treated cells vs control group) was “significantly enhanced”.

Take `C=C(CC[C@@H](C(=O)O)[C@H]1[C@H](O)C[C@@]2(C)C3=CC[C@H]4C(C)(C)[C@@H](O)CC[C@]4(C)C3=CC[C@]12C)C(C)C` [Dehydrotumulosic acid (DTA), dehydrotumulosic acid]: the “relative content of collagen” value stood at 122% in test [1] (0.01 μM), 105% in test [1] (0.1 μM) and 139% in test [1] (1 μM). Besides, the “extracellular contents of collagen (collagen in cell medium) as compared to the control group (in words)” value in test [1] is reported as “significantly enhanced”. For the same molecule, the “relative intracellular content of collagen” value was found to be 159% in test [2] (0.01 μM), 156% in test [2] (0.1 μM) and 127% in test [2] (1 μM). Further, in test [2] (treated cells vs control group), the “intracellular contents of collagen as compared to the control group (in words)” value was “significantly enhanced”. Besides, the results for the “relative content of hyaluronic acid” value in test [3] (0.01 μM), in test [3] (0.1 μM) and in test [3] (1 μM) were 112%, 134% and 168%, respectively. Moreover, the “contents of hyaluronic acid as compared to the control group (in words)” value in test [3] (treated cells vs control group) was “significantly enhanced”. Besides, the “contents of hyaluronic acid, ingredients singled out as stronger (in words)” value in test [3] (treated cells vs control group, compared with the other active ingredients) is recorded as “enhanced more significantly”.

In the case of `CC(C)=CCC[C@@H](C(=O)O)[C@H]1CC[C@@]2(C)C3=C(CC[C@]12C)[C@@]1(C)CC[C@H](O)C(C)(C)[C@@H]1CC3` [Trametenolic acid (TTA), trametenolic acid], the “relative content of collagen” value came to 141% in test [1] (0.01 μM), 149% in test [1] (0.1 μM) and 142% in test [1] (1 μM). In test [1], the “extracellular contents of collagen (collagen in cell medium) as compared to the control group (in words)” value was “significantly enhanced”. In addition, the “relative intracellular content of collagen” value came out at 95% in test [2] (0.01 μM), 79% in test [2] (0.1 μM) and 79% in test [2] (1 μM). Also, the “relative content of hyaluronic acid” value in test [3] (0.01 μM) was 83%; in test [3] (0.1 μM), 108%; in test [3] (1 μM), 125%. Further, the “contents of hyaluronic acid as compared to the control group (in words)” value in test [3] (treated cells vs control group) is “significantly enhanced”.

The record behind these values is patent US11654169B2, “Methods for protecting skin and/or promoting wound healing” (SINPHAR PHARMACEUTICAL CO., LTD., priority 2016, dated 2023).
